From the supplement of paper PMC5908809

How the values were obtained:
[1] = tested on: NK-92 (IL-2 2.5 ng/mL); experiment: drug sensitivity score (DSS) (DSS units); higher = more sensitive; extreme values may be limits of the assay; conditions: 72 h
[2] = tested on: normal primary NK cells, pool 1 (3 donors) (IL-2 2.5 ng/mL); experiment: as above; conditions: 72 h
[3] = tested on: normal primary NK cells, pool 3 (3 donors) (IL-2 2.5 ng/mL); experiment: as above; conditions: 72 h
[4] = tested on: IMC-1 (IL-2 20 ng/mL); experiment: as above; conditions: 72 h
[5] = tested on: normal primary NK cells, pool 2 (3 donors) (IL-2 2.5 ng/mL); experiment: as above; conditions: 72 h
[6] = tested on: NKL (IL-2 2.5 ng/mL); experiment: as above; conditions: 72 h
[7] = tested on: KAI3 (IL-2 2.5 ng/mL); experiment: as above; conditions: 72 h
[8] = tested on: normal primary NK cells, pool 1 (3 donors), resting (IL-2 0 ng/mL); experiment: as above; conditions: 72 h
[9] = tested on: SNK-6 (IL-2 2.5 ng/mL); experiment: as above; conditions: 72 h
[10] = tested on: DERL-7 (IL-2 2.5 ng/mL); experiment: as above; conditions: 72 h
[11] = tested on: YT (IL-2 2.5 ng/mL); experiment: as above; conditions: 72 h
[12] = tested on: NK-YS (IL-2 2.5 ng/mL); experiment: as above; conditions: 72 h
[13] = tested on: KHYG-1 (IL-2 2.5 ng/mL); experiment: as above; conditions: 72 h
[14] = tested on: NK-92 (IL-2 2.5 ng/mL); experiment: percent inhibition of viability; higher = more inhibition; conditions: 72 h
[15] = tested on: normal primary NK cells, pool 1 (3 donors) (IL-2 2.5 ng/mL); experiment: as above; conditions: 72 h
[16] = tested on: normal primary NK cells, pool 3 (3 donors) (IL-2 2.5 ng/mL); experiment: as above; conditions: 72 h
[17] = tested on: IMC-1 (IL-2 20 ng/mL); experiment: as above; conditions: 72 h
[18] = tested on: normal primary NK cells, pool 2 (3 donors) (IL-2 2.5 ng/mL); experiment: as above; conditions: 72 h
[19] = tested on: NKL (IL-2 2.5 ng/mL); experiment: as above; conditions: 72 h
[20] = tested on: KAI3 (IL-2 2.5 ng/mL); experiment: as above; conditions: 72 h
[21] = tested on: normal primary NK cells, pool 1 (3 donors), resting (IL-2 0 ng/mL); experiment: as above; conditions: 72 h
[22] = tested on: SNK-6 (IL-2 2.5 ng/mL); experiment: as above; conditions: 72 h
[23] = tested on: DERL-7 (IL-2 2.5 ng/mL); experiment: as above; conditions: 72 h
[24] = tested on: YT (IL-2 2.5 ng/mL); experiment: as above; conditions: 72 h
[25] = tested on: NK-YS (IL-2 2.5 ng/mL); experiment: as above; conditions: 72 h
[26] = tested on: KHYG-1 (IL-2 2.5 ng/mL); experiment: as above; conditions: 72 h
[27] = tested on: normal NK cells expanded with K562-aAPC; experiment: as above; conditions: 72 h, IL-2 2.5 ng/mL
Method: (§1)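 Drug sensitivity and resistance testing on K562-aAPC-expanded normal NK cells: 5 concentrations (10-fold steps over a 10,000-fold range), 72 h at 37 °C, viability by CellTiter-Glo normalised to DMSO and benzethonium chloride controls; DSS from the fitted curve.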

[28] = tested on: normal NK cells expanded with K562-aAPC; experiment: drug sensitivity score (DSS) (DSS units); higher = more sensitive; extreme values may be limits of the assay; conditions: 72 h; IL-2 2.5 ng/mL
Method: as §1

O=C(Nc1cccc(C(F)(F)F)c1)Nc1cc(S(=O)(=O)NC2CC2)ccc1-c1ccsc1 [AGI-6780] (max concentration tested 10000 nM)
Conditions	drug sensitivity score
[1]	6.57
[2]	1.25
[3]	0
[4]	0.03
[5]	1.59
[6]	0.4
[7]	0.81
[8]	4.5
[9]	2.72
[10]	3.34
[11]	3.31
[12]	1.21
[13]	2.61
[28]	0

percent inhibition of viability [%]
Conditions	1 nM	10 nM	100 nM	1000 nM	10000 nM
[14]	-7.9	-10.9	-5.67	20.1	65.8
[15]	-6.68	-2.93	8.08	7.42	23.6
[16]	-11.5	-1.88	-0.35	8.79	8.51
[17]	-3.83	-6.4	-1.13	-1.96	12.3
[18]	-16	-3.85	-3.48	9.29	20.2
[19]	-8.69	-12.6	-8.03	-5.7	20.2
[20]	7.81	-7.37	-5.02	-1.47	24.4
[21]	2.29	1.29	13	17.2	44.5
[22]	-7.22	11.7	2.33	11.1	32.3
[23]	2.8	2.88	5.06	7.2	42.2
[24]	-2.18	-6.24	-5.3	5.28	46.9
[25]	-0.22	0.5	-0.98	2.65	23.1
[26]	0.2	-3.96	-1.95	2.69	43.5
[27]	-7.15	-5.5	-5.48	-5.66	6.74

CNC(=O)c1ccc(N2C(=S)N(c3cnc(C#N)c(C(F)(F)F)c3)C(=O)C23CCC3)cc1F [ARN 509] (max concentration tested 10000 nM)
Conditions	drug sensitivity score
[1]	0.72
[2]	0
[3]	0
[4]	0.78
[5]	0
[6]	0
[7]	1.88
[8]	0.11
[9]	7.62
[10]	0
[11]	0
[12]	0.46
[13]	0
[28]	3.05

percent inhibition of viability [%]
Conditions	1 nM	10 nM	100 nM	1000 nM	10000 nM
[14]	-3.11	-4.21	2.28	-1.18	23
[15]	-11.3	4.68	-6.94	-10.6	10.8
[16]	-7.92	-6.67	-6.21	-10.2	3.54
[17]	2.81	-1.31	5.83	9.26	16.9
[18]	-8.15	-8.75	-5.23	-6.28	8.97
[19]	-5.58	-11.3	-0.18	-5.48	3.63
[20]	-2.56	-12.9	0.32	4.54	27.9
[21]	-0.17	11.7	-4.44	-10.2	15.5
[22]	16.7	-1.7	14.6	33.1	24.3
[23]	6.41	-1.09	-0.93	-13.3	-12.6
[24]	2.58	2.98	4.62	0.81	10.2
[25]	-3.22	-1.75	-0.61	1.75	15.7
[26]	-1.73	-3.05	1.87	8.59	9.64
[27]	0.72	1.64	2.47	20	14.2

COc1cc(N2CCC(N3CCN(C)CC3)CC2)ccc1Nc1ncnc(Nc2ccccc2S(=O)(=O)C(C)C)n1 [ASP3026] (max concentration tested 10000 nM)
Conditions	drug sensitivity score
[1]	0.4
[2]	3.22
[3]	0.03
[4]	5.24
[5]	0.97
[6]	4.54
[7]	3.79
[8]	3.53
[9]	0
[10]	3.14
[11]	5.89
[12]	3.39
[13]	5.05
[28]	6.45

percent inhibition of viability [%]
Conditions	1 nM	10 nM	100 nM	1000 nM	10000 nM
[14]	-10.8	-22.5	-27.1	-14.8	22.2
[15]	-1.83	5.98	6.01	9.21	38.7
[16]	1.7	-6.92	8.07	2.81	13.3
[17]	-8.57	-5.26	-7.48	-3.28	98.9
[18]	-4.59	-7.52	3.32	-3.09	28.1
[19]	-3.77	-9.59	5.62	18.9	47.8
[20]	5.1	3.91	7.67	16.4	42.7
[21]	-11.5	-0.46	-1.76	10.4	39.3
[22]	-14.8	-8.98	-26.5	-35.9	8.43
[23]	0.73	-6.32	2.12	0.42	57.2
[24]	-2.02	-0.55	1.22	12.5	69.4
[25]	-5.41	-0.07	-1.63	6.41	44.9
[26]	-6.71	0.13	-0.92	10.2	61.3
[27]	0.75	-1.15	0.69	7.2	96.3
